# From ChEMBL document CHEMBL1144179, “Molecular modeling aided design of nicotinic acid receptor GPR109A agonists” (Bioorg Med Chem Lett, 2008)
# What was measured:
# [1] = biological target: Hydroxycarboxylic acid receptor 2 (Homo sapiens) (UniProt Q8TDS4); assay: Displacement of [3H]nicotinic acid from human GPR109A receptor expressed in CHO-K1 cells at 25 uM; type: cell-based
# [2] = biological target: Hydroxycarboxylic acid receptor 2 (Homo sapiens) (UniProt Q8TDS4); assay: Displacement of [3H]nicotinic acid from human GPR109A receptor expressed in CHO-K1 cells at 2.5 uM; type: cell-based
# Mus musculus = assay: Induction of vasodilation in mouse assessed as arbitrary units from vasodilation AUC curve at 100 mg/kg; type: functional
# [3] = Plasma clearance in mouse; type: ADME, organism-based
# [4] = Volume of distribution at steady state in mouse; type: ADME, organism-based; conditions: in vivo, read-out: Vdss
# [5] = Half life in mouse; type: ADME, organism-based; conditions: in vivo
# [6] = Cmax in mouse; type: ADME, organism-based; conditions: in vivo
# [7] = Oral bioavailability in mouse; type: ADME, organism-based; conditions: in vivo
Activity [1],Activity [2],SMILES,Activity (Mus musculus),further results
33%,69%,COc1ccc(OCC(=O)Nc2ccccc2C(=O)O)cc1,–,–
52%,88%,O=C(CCc1ccccc1)Nc1ccccc1C(=O)O,–,–
–,–,O=C(O)c1cccnc1 [NIACIN],707,–
–,–,O=C(CCc1ccc2cc(O)ccc2c1)Nc1ccccc1C(=O)O,59,clearance [3]: 6.2 mL/min/kg; Vd [4]: 0.7 L/kg; half-life [5]: 3.2 h; Cmax [6]: 6.6 µM; bioavailability [7]: 55%
40%,78%,O=C(COc1ccccc1)Nc1ccccc1C(=O)O,–,–
